{
  "source": "patent US12678449B2",
  "about": "“Compositions including cannabis and avocado/soybean unsaponifiables and methods of use” (Nutramax Laboratories, Inc., priority 2019, dated 2026)",
  "origin": "cited, not measured here",
  "key": {"[1]": {"details": "beagle dogs, oral, single dose"}, "[2]": {"details": "human"}},
  "note": "Like-named read-outs stand apart in the source and are kept apart here.",
  "data": [
    {"smiles": "C=C(C)[C@@H]1CCC(C)=C[C@H]1c1c(O)cc(CCCCC)cc1O", "note": "[CBD, 2-[(1R,6R)-3-methyl-6-prop-1-en-2-ylcyclohex-2-en-1-yl]-5-pentylbenzene-1,3-diol]", "values": [
      {"measurement": "median maximal concentration of CBD in serum", "setting": "[1]; 2 mg/kg CBD in olive oil", "value": 102.3, "unit": "ng/mL"},
      {"measurement": "median maximal concentration of CBD in serum", "setting": "[1]; 8 mg/kg CBD in olive oil", "value": 590.8, "unit": "ng/mL"},
      {"measurement": "CMAX", "setting": "[2]; 10 mg dose of CBD (Guy et al.)", "value": 2.47, "unit": "ng/mL"},
      {"measurement": "mean plasma concentration of CBD", "setting": "[2]; 1 h after oral intake of 5.4 mg dose (Nadulski et al.)", "value": 0.95, "unit": "ng/mL"},
      {"measurement": "mean plasma level of CBD", "setting": "[2]; oral administration of 40 mg of CBD (Agurell et al.)", "value": 5.5, "unit": "ng/mL"}
    ]}
  ]
}
